Test in all cases: ≥ marks a high value that may be exact or a test limit, other limits are often not marked, values filed in µg/mL are converted to µM
Test [1] concerns Salmonella enterica ATCC 6539.
For test [2], the system named is Klebsiella pneumoniae ATCC 700603.
The test system of test [3] is Staphylococcus aureus ATCC 43300.
For test [4], the system named is Pseudomonas aeruginosa ATCC 27853.
The subject of test [5] is Enterococcus faecium ATCC 700221.
Test [6] has as its system Acinetobacter baumannii ATCC BAA-747.
Test [7] deals with Escherichia coli ATCC 25922.
Test [8] deals with Listeria monocytogenes 10403s.
For test [9], the system named is Bacillus cereus ATCC 11778.
Test [10] deals with Enterococcus faecalis ATCC 29212.
Test [11] deals with Vibrio cholerae O1 Inaba.
Test [12] deals with Salmonella enterica subsp. enterica serovar Typhimurium ATCC 13311.
The test system of test [13] is Escherichia coli O157:H7.
The test system of test [14] is Staphylococcus aureus ATCC 25923.
Test [15] concerns Shigella sonnei ATCC 11060.
The subject of test [16] is Acinetobacter baumannii.
Test [17] relates to Staphylococcus epidermidis ATCC 12228.
For test [18], the system named is Candida parapsilosis ATCC 90018.
In test [19] the test system is Candida krusei ATCC 40095.
For test [20], the system named is Candida krusei ATCC 40147.
The test system of test [21] is Candida albicans CA1.
Test [22] relates to Mannheimia haemolytica 82-25.
Test [23] concerns Candida parapsilosis CGMCC 2.3989.
Test [24] deals with Candida albicans CGMCC 2.2086.
Test [25] concerns Candida albicans.
Test [26] concerns Candida tropicalis CGMCC 2.1975.
The test system of test [27] is Escherichia coli TOP 10.
The test system of test [28] is Staphylococcus aureus SH1000.
The subject of test [29] is Pseudomonas aeruginosa PAO1.
Test [30] deals with Escherichia coli C600.
For test [31], the system named is Staphylococcus aureus 209P.

For eight compounds, MIC results are on record in DBAASP.

≈ marks a conversion by molar mass, not a printed value. Where “and” joins values, the source holds several entries; their conditions need not be identical. Equal values may be shown once. Where only a bound is given, the exact number is not on record here.

Broadly, the MIC is the least concentration at which growth counts as inhibited. The low end stands for greater potency, the high end for weaker potency. Turning to `NCC(=O)NCC(=O)N[C@@H](Cc1cnc[nH]1)C(=O)O` [GGH], the MIC in [1] was no less than 476 µM; in test [2], greater than 476 µM; in [3], greater than 476 µM; in [4], greater than 476 µM; in [5] it was no less than 476 µM; in [6] it was no less than 476 µM. This compound showed an MIC in test [7] greater than 476 µM.

On to `CC[C@H](C)[C@H](NC(=O)[C@H](CCCN=C(N)N)NC(=O)[C@H](CCCCN)NC(=O)[C@H](C)NC(=O)[C@@H](NC(=O)[C@@H](N)CCCCN)[C@@H](C)CC)C(=O)N[C@@H](Cc1c[nH]c2ccccc12)C(=O)N[C@@H](CCCCN)C(=O)N[C@H](C(=O)N[C@@H](CC(C)C)C(=O)N[C@@H](CCCN=C(N)N)C(=O)N[C@@H](CCCN=C(N)N)C(=O)N[C@@H](CCCN=C(N)N)C(=O)N[C@@H](CC(C)C)C(=O)N[C@@H](Cc1ccccc1)C(=O)N[C@@H](CCCN=C(N)N)C(N)=O)[C@@H](C)CC` [KIAKRIWKILRRRLFR], for which the MIC was found to be 1.82 µM (≈ 3.91 µg/mL) in test [8]; 1.82 µM (≈ 3.91 µg/mL) in test [9]; 7.26 µM (≈ 15.6 µg/mL) in test [10]; 1.82 µM (≈ 3.91 µg/mL) in [11]; 0.905 µM (≈ 1.95 µg/mL) in [12]; 3.63 µM (≈ 7.81 µg/mL) in [4]. For the same compound, the MIC in [13] was 29 µM (≈ 62.5 µg/mL); in test [14], 3.63 µM (≈ 7.81 µg/mL); in test [15], 1.82 µM (≈ 3.91 µg/mL); in [16], 3.63 µM (≈ 7.81 µg/mL); in [7], 3.63 µM (≈ 7.81 µg/mL); in test [17], 1.82 µM (≈ 3.91 µg/mL).

`CC[C@H](C)[C@H](NC(=O)[C@H](C)NC(=O)[C@H](CCCCN)NC(=O)[C@H](CC(C)C)NC(=O)[C@H](C)NC(=O)[C@H](Cc1c[nH]c2ccccc12)NC(=O)[C@H](CCCCN)NC(=O)[C@H](C)NC(=O)[C@H](CC(C)C)NC(=O)[C@@H](NC(=O)CNC(=O)[C@H](Cc1c[nH]c2ccccc12)NC(=O)[C@@H](N)Cc1ccccc1)[C@@H](C)O)C(=O)O` [FWGTLAKWALKAI]: the MIC in test [18] was 20 µM (≈ 30.1 µg/mL); in test [19] it was 10 µM and 20 µM; in test [20] it was 10 µM (≈ 15 µg/mL); in [21], 10 µM (≈ 15 µg/mL).

Take `NCCCC[C@H](NC(=O)[C@H](CC(=O)O)NC(=O)[C@H](CC(=O)O)NC(=O)[C@H](CC(=O)O)NC(=O)[C@@H](N)CC(=O)O)C(=O)O` [DDDDK]: the MIC in test [22] was no less than 90 µM.

For the compound `CC[C@H](C)[C@H](NC(=O)CNC(=O)[C@H](CCCN=C(N)N)NC(=O)[C@H](Cc1c[nH]c2ccccc12)NC(=O)[C@H](CC(C)C)NC(=O)[C@H](CC(C)C)NC(=O)[C@H](Cc1c[nH]c2ccccc12)NC(=O)[C@H](CCCN=C(N)N)NC(=O)CNC(=O)[C@@H](NC(=O)[C@@H](N)CCCN=C(N)N)[C@@H](C)CC)C(=O)N[C@@H](CCCN=C(N)N)C(=O)N[C@@H](CCCN=C(N)N)C(=O)N[C@H](C(=O)NCC(=O)N[C@@H](CCCN=C(N)N)C(=O)N[C@@H](Cc1c[nH]c2ccccc12)C(=O)N[C@@H](CC(C)C)C(N)=O)[C@@H](C)CC` [RIGRWLLWRGIRRIGRWL], the MIC in test [23] is 4 µM (≈ 9.45 µg/mL); in [24], 4 µM (≈ 9.45 µg/mL); in test [25], 2.83 µM and 4 µM; in [26], 2 µM (≈ 4.73 µg/mL).

Compound `CC[C@H](C)[C@H](NC(=O)[C@H](C)NC(=O)[C@H](CS)NC(=O)[C@H](CC(C)C)NC(=O)[C@@H](NC(=O)[C@H](C)NC(=O)[C@H](CCCN=C(N)N)NC(=O)[C@@H](NC(=O)[C@@H](NC(=O)[C@H](CCCCN)NC(=O)[C@@H](NC(=O)[C@@H](NC(=O)[C@@H]1CCCN1C(=O)CNC(=O)[C@H](CC(C)C)NC(=O)[C@@H](N)Cc1ccccc1)[C@@H](C)CC)[C@@H](C)CC)[C@@H](C)O)C(C)C)C(C)C)C(=O)N[C@@H](CCCCN)C(=O)N[C@@H](CCCCN)C(=O)N[C@@H](CC(C)C)C(N)=O` [FLGPIIKTVRAVLCAIKKL] gave an MIC in test [27] of 12 µM (≈ 25 µg/mL).

Consider `CC[C@H](C)[C@H](NC(=O)[C@H](CC(=O)O)NC(=O)[C@H](CC(C)C)NC(=O)[C@H](CC(C)C)NC(=O)[C@@H](N)CCCCN)C(=O)N[C@H](C(=O)N[C@@H](CCCCN)C(=O)N[C@@H](CCCCN)C(=O)N[C@H](C(=O)N[C@H](C(=O)NCC(=O)N[C@@H](C)C(=O)N[C@@H](CC(C)C)C(=O)NCC(N)=O)C(C)C)C(C)C)C(C)C` [KLLDIVKKVVGALG], for which the MIC in [28] was no less than 100 µM.

For `CC[C@H](C)[C@@H]1NC(=O)CNC(=O)[C@H](CCCN=C(N)N)NC(=O)[C@H](Cc2ccc(O)cc2)NC(=O)[C@@H]2CSSC[C@H](NC1=O)C(=O)N[C@@H](Cc1ccc(O)cc1)C(=O)N[C@@H](CCCN=C(N)N)C(=O)N[C@@H](CCCN=C(N)N)C(=O)N[C@H](C(=O)N[C@@H](CCCN=C(N)N)C(=O)O)CSSC[C@H](NC(=O)[C@H](Cc1c[nH]c3ccccc13)NC(=O)[C@@H](N)CCCCN)C(=O)N[C@@H](Cc1ccccc1)C(=O)N[C@@H](CCCN=C(N)N)C(=O)N[C@@H](CO)C(=O)N2` [KWCFRSCYRGICYRRCR], the MIC in test [29] turned out to be 12.5 µM (≈ 28.2 µg/mL); in test [30], 1.56 µM (≈ 3.51 µg/mL); in test [31], 6.25 µM (≈ 14.1 µg/mL).
